We go through 1 substance from patent publication US10364466B2, “Biological markers for identifying patients for treatment with VEGF antagonists” (Genentech, Inc., priority 2012, dated 2019).

For one assay, the system named is VDV gene expression. Briefly: Microarray VDV signature expression in pre- and post-treatment biopsies of inflammatory breast cancer patients (Table 3, human IBC Log2FC). The assay is classed as in vivo. Particulars: 19 inflammatory breast cancer patients, one dose single agent, 21 days post-treatment; published micro-array data (Wedam et al.). The text has this:
The log2 ratio intensity values from Agilent WMG microarrays and the Robust Multi-array Average (RMA) normalized intensities (also on the logarithmic scale) from Affymetrix Mouse430.2 microarrays were imported into R as expression sets using the package “Biobase,” and a linear model was fitted to each feature using the functions “lmFit” and “eBayes” in the “limma” package. […] The union of these genes was taken as representative of the VEGF-responsive vasculature. The extent to which this VDV gene expression signature varied in other experiments was determined by fitting a linear model to the microarray data using the “limma” package (as above) and calculating the mean of the t-statistics from gene in the signature according to the method of Falcon and Gentleman (Bioinformatics. 23: 257-258, 2007).
As depicted in Table 3 below, the genes in the VDV signature were ordered by the extent of anti-VEGF response in the human IBC trial. Orthologs between human and mouse were mapped using the Ensembl Biomart, where “Log 2FC” represents the log(2) fold-change of the gene's expression post-Avastin treatment as compared to pre-treatment. The 19 paired patient samples and the murine PNETs were analyzed on Agilent microarrays. […]

The test system of assay [1] is metastatic colorectal carcinoma (CRC). Particulars: whole NO16966 study, Saltz et al. 2008; cited from earlier work.
Assay [2] has the same test system. The assay can be described thus: NO16966 first-line metastatic colorectal cancer trial, PFS and OS, stratified by 22-gene VDV signature. It counts as in vivo, human. The method, then: Sections from archival tumor samples from patients enrolled in the XELOX treatment arms of NO 16966 were evaluated by a pathologist and high tumor content area macro-dissected for subsequent RNA isolation using the FFPE RNA isolation kit (Roche; 7-10 sections per patient). RNA levels were assessed after cDNA synthesis following standard techniques, with the qPCR protocol on the Fluidigm Biomark platform according to the manufacturer's protocol.
Quantitative histological data from various animal experiments were plotted using Microsoft Excel software. Student's t test was applied to compare data sets of interest and differences with p values <0.05 were considered significant. 103 biopsies out of 1017 patients from the XELOX (capecitabine and oxaliplatin)-containing arm in the NO16966 trial were analyzed for the gene expression of VDV genes. qRT-PCR values were normalized by the housekeeping genes and relative to a universal reference sample to derive delta-delta Ct values. Subsequently, the delta-delta Ct value of each of the 22 VDV genes was mean centered and variance scaled to a Z-score.
For each sample i for which all of the VDV genes were analyzed, a VDV signature score (VDVi) was calculated. The VDVi represents a weighted average of z-scores across the analyzed VDV genes and is given by the algorithm:
[formula] wherein Zg,i is the standardized z-score of the qRT-PCR value for gene g of sample i and n, in this instance, is 22. The VDVi value provides quantitative information regarding the extent to which the expression of a particular set of genes is collectively overexpressed or underexpressed relative to a centered mean.
To compare the clinical outcomes (PFS and OS) between marker and/or treatment subgroups, log-rank tests and Cox regression were used, with median time calculated by the Kaplan-Meier analysis. All statistical tests were two-sided.
To test if VDV gene expression could correlate with clinical outcomes, we analyzed VDV gene expression levels in available pre-treatment archival tumor tissue from 103 patients (biomarker evaluable subpopulation) that were enrolled in the XELOX-containing arms. Due to the limited quality and amount of RNA from these clinical samples, gene expression was analyzed in a previously designed and validated “angiogenesis” Fluidigm qRT-PCR chip (FIG. 8B) that included 4 different housekeeping genes (for gene expression normalization), VEGF (as a control), and 22 representative proximal and distal VDV genes comprising: (i) pan-vascular markers such as CD31, CD34, and VE-CADH as indicators of MVD; (ii) key VEGF pathway components and proxVDV genes, including VEGFR-1, VEGFR-2, VEGFR-3, EPHRINB2, NRPs, ESM1, NID2, COL4a2, and LAMA4a; and (iii) additional VDV genes that are components of endothelial signaling pathways and potential modulators of VDV biology, including DLL-4, NOTCH1, ALK1, and EGFL7 (see FIG. 9A for validation of this compacted 22 VDV gene signature).

Assay [3] has the same test system. Particulars: patients with metastatic CRC, Hurwitz et al. 2004; cited from earlier work.
Setting [4] is: 103 biomarker evaluable patients, XELOX arms.

Take “bevacizumab: recombinant humanized anti-VEGF monoclonal antibody”: in the assay on VDV gene expression, the “VDV transcripts post-treatment vs pre-treatment biopsies” value is listed as “clear down regulation”. Also, in assay [1], the “OS differences (secondary endpoint), addition to chemotherapy” value is recorded as “did not reach statistical significance” and the “primary endpoint of PFS, addition to chemotherapy” value is given as “significantly improved”. Moreover, in assay [2] (setting [4]), the “OS HR, addition to chemotherapy” value was determined as 0.45 and the “PFS HR, addition to chemotherapy” value came to 0.59. Also, in assay [2] (VDV high patients), the “OS HR, addition to chemotherapy vs chemotherapy alone” value worked out at 0.31 and the “PFS HR, addition to chemotherapy vs chemotherapy alone” value turned out to be 0.36. For the same substance, in assay [2] (VDV low patients), the “OS HR, combination with chemotherapy vs chemotherapy alone” value is listed as 0.58 and the “PFS HR, combination with chemotherapy vs chemotherapy alone” value is recorded as 0.88. Also, the “progression free survival (PFS) and overall survival (OS), combination with chemotherapy” value in assay [3] is on record as “increase”.
